In patent US20100022527A1, “BIPHENYL SUBSTITUTED SPIROTETRONIC ACIDS AND THEIR USE FOR THE TREATMENT OF RETROVIRAL DISEASES” (priority 2006, published 2010):

Target: T1, HIV-1 protease wild type protein (Human immunodeficiency virus type 1 group M subtype B, UniProt P04585)
T1 construct: HIV-1 protease wild type protein; purchased AscoProt Biotech, Prague, Czech Republic
Test: Biochemical protease assay
Protocol: For the determination of their in vitro activity on HIV proteases the test substances are dissolved in DMSO and serially diluted. In each case 0.5 μl of substance dilution, 20 μl of 0.2-1 nM HIV-1 protease wild type or mutant protein (e.g., multiresistant isolate “35513”: L10I, I15V, L19I, K20R, E35D, M36I, R41K, I54V, L63P, H69K, A71V, T74P, I84V, L89M, L90M, 193L, AscoProt Biotech, Prague, Czech Republic) in buffer 1 (50 mM sodium acetate pH 4.9, 0.02% BSA, 0.1 mM EDTA, 0.5 mM DTT) and 20 μl of 8 μM substrate (M1865 from Bachem, Bubendorf, Switzerland; Matayoshi et al., Science 1990, 247, 954-8) in buffer 1 are added successively to a 384 well microtiter plate (Greiner, Frickenhausen, Germany), incubated for 60-180 minutes at 32° C. and the fluorescence is measured (e.g., Tecan Safire, 340 nm extinction, 520 nm emission). IC50 values are determined by graphical plotting the substance concentration against the percentage inhibition.

| SMILES | IC50 |
| --- | --- |
| Cc1cc(-c2cccc(NS(C)(=O)=O)c2)c(Cl)cc1C1=C(O)C2(CCCCC2)OC1=O [Example 176, N-[2′-Chloro-4′-(4-hydroxy-2-oxo-1-oxaspiro[4.5]dec-3-en-3-yl)-5′-methylbiphenyl-3-yl]methanesulfonamide] | ≤ 100 nM |
| CCCS(=O)(=O)Nc1cccc(-c2cc(C)c(C3=C(O)C4(CCCCC4)OC3=O)cc2Cl)c1 [Example 177] | ≤ 100 nM |
| Cc1cc(-c2ccc(NS(C)(=O)=O)cc2)c(Cl)cc1C1=C(O)C2(CCCCC2)OC1=O [Example 178] | ≤ 100 nM |
| Cc1cc(-c2ccc(NS(C)(=O)=O)cc2)c(Cl)cc1C1=C(O)C2(CCC3CCCC3C2)OC1=O (centres unmarked) [Example 180] | ≤ 100 nM |
| Cc1cc(-c2cccc(NC(=O)CCCN(C)C)c2)c(Cl)cc1C1=C(O)C2(CCCCC2)OC1=O [Example 181] | ≤ 100 nM |
| Cc1cc(-c2cccc(NC(=O)CN(C)C)c2)c(Cl)cc1C1=C(O)[C@]2(CC[C@@H]3CCC[C@@H]3C2)OC1=O [Example 182] | ≤ 100 nM |
| Cc1cc(-c2cccc(NC(=O)CCN)c2)c(Cl)cc1C1=C(O)[C@]2(CC[C@@H]3CCC[C@@H]3C2)OC1=O [Example 183] | ≤ 100 nM |
| CC(=O)Nc1cc(-c2cc(C)c(C3=C(O)C4(CCCCC4)OC3=O)cc2Cl)ccc1C [Example 184, N-[2′-Chloro-4′-(4-hydroxy-2-oxo-1-oxaspiro[4.5]dec-3-en-3-yl)-4,5′-dimethylbiphenyl-3-yl]acetamide] | ≤ 100 nM |
| Cc1cc(-c2cccc(N(C)S(C)(=O)=O)c2)c(Cl)cc1C1=C(O)C2(CCCCC2)OC1=O [Example 185, N-[2′-Chloro-4′-(4-hydroxy-2-oxo-1-oxaspiro[4.5]dec-3-en-3-yl)-5′-methylbiphenyl-3-yl]-N-methylmethanesulfonamide] | ≤ 100 nM |
| Cc1cc(-c2cccc(NS(C)(=O)=O)c2)c(Cl)cc1C1=C(O)C2(CCC3CCCC3C2)OC1=O (centres unmarked) [Example 189] | ≤ 100 nM |
| CCS(=O)(=O)Nc1cccc(-c2cc(C)c(C3=C(O)C4(CCCCC4)OC3=O)cc2Cl)c1 [Example 190] | ≤ 100 nM |
| Cc1cc(-c2cccc(NS(=O)(=O)Cc3ccccc3)c2)c(Cl)cc1C1=C(O)C2(CCCCC2)OC1=O [Example 191] | ≤ 100 nM |
| Cc1cc(-c2cccc(NS(=O)(=O)c3cccnc3)c2)c(Cl)cc1C1=C(O)C2(CCCCC2)OC1=O [Example 192] | ≤ 100 nM |
| C=CS(=O)(=O)Nc1cccc(-c2cc(C)c(C3=C(O)C4(CCCCC4)OC3=O)cc2Cl)c1 [Example 193, N-[2′-Chloro-4′-(4-hydroxy-2-oxo-1-oxaspiro[4.5]dec-3-en-3-yl)-5′-methylbiphenyl-3-yl]ethenesulfonamide] | ≤ 100 nM |
| Cc1cc(-c2cccc(S(C)(=O)=O)c2)c(Cl)cc1C1=C(O)C2(CCCCCC2)OC1=O [Example 198] | ≤ 100 nM |
| Cc1cc(-c2cccc(NS(C)(=O)=O)c2)c(Cl)cc1C1=C(O)C2(CCCCCC2)OC1=O [Example 199] | ≤ 100 nM |
| Cc1cc(-c2cccc(S(C)(=O)=O)c2)c(Cl)cc1C1=C(O)C2(CCCC2)OC1=O [Example 200] | ≤ 100 nM |
| Cc1cc(-c2ccccc2)c(Cl)cc1C1=C(O)C2(CCCC2)OC1=O [Example 201] | ≤ 100 nM |
| Cc1cc(-c2cccc(NS(C)(=O)=O)c2)c(Cl)cc1C1=C(O)C2(CCCC2)OC1=O [Example 202] | ≤ 100 nM |
| Cc1cc(-c2cccc(S(C)(=O)=O)c2)c(Cl)cc1C1=C(O)C2(CCCN(CC(=O)NCc3ccc(Cl)s3)C2)OC1=O (centres unmarked) [Example 203] | ≤ 100 nM |
